Reference: the supplement of paper PMC10307832

Key:
Assay in all cases: relative viability (nuclei count vs DMSO), 5 days (fraction); higher = more cells survive
[1] = compound: C1=CC=C2C(=C1)C=CC(=C2SSC3=C(C=CC4=CC=CC=C43)O)O [IPA-3] + CS(=O)(=O)CCNCc1ccc(-c2ccc3ncnc(Nc4ccc(OCc5cccc(F)c5)c(Cl)c4)c3c2)o1 [Lapatinib] (partner 2 µM)
Procedure, shortened: (§1)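 Lung cancer cell lines, seeded in 1536-well plates, were treated the following day by pin tool with a single drug or with five library-drug doses (not always all listed) in √10 steps on top of a fixed anchor-drug dose. Cells were fixed and nuclei stained in one step after 5 days, and nuclei were counted. Relative viability is the nuclei count for treated wells divided by that for vehicle wells, reported as medians of duplicate plates.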

[2] = compound: Cn1c(Nc2ccc(C(F)(F)F)cc2)nc2cc(Oc3ccnc(-c4ncc(C(F)(F)F)[nH]4)c3)ccc21 [RAF265] + CC(=O)Nc1cccc(-n2c(=O)n(C3CC3)c(=O)c3c(Nc4ccc(I)cc4F)n(C)c(=O)c(C)c32)c1 [Trametinib] (partner 0.02 µM)
Procedure, shortened: as §1

[3] = compound: Cn1c(Nc2ccc(C(F)(F)F)cc2)nc2cc(Oc3ccnc(-c4ncc(C(F)(F)F)[nH]4)c3)ccc21 [RAF265] + CC(=O)c1c(C)c2cnc(Nc3ccc(N4CCNCC4)cn3)nc2n(C2CCCC2)c1=O [Palbociclib] (partner 0.5 µM)
Procedure, shortened: as §1

[4] = compound: Cn1c(Nc2ccc(C(F)(F)F)cc2)nc2cc(Oc3ccnc(-c4ncc(C(F)(F)F)[nH]4)c3)ccc21 [RAF265] + C[C@@H](Oc1cc(-c2cnn(C3CCNCC3)c2)cnc1N)c1c(Cl)ccc(F)c1Cl [Crizotinib] (partner 1 µM)
Procedure, shortened: as §1

Cell Line | relative viability ([1]; first compound 0.2 µM) | relative viability ([1]; first compound 0.6325 µM) | relative viability ([1]; first compound 2 µM) | relative viability ([1]; first compound 6.325 µM) | relative viability ([1]; first compound 20 µM) | relative viability ([2]; first compound 0.01 µM) | relative viability ([2]; first compound 0.03162 µM) | relative viability ([2]; first compound 0.1 µM) | relative viability ([2]; first compound 0.3162 µM) | relative viability ([2]; first compound 1 µM) | relative viability ([3]; first compound 0.01 µM) | relative viability ([3]; first compound 0.03162 µM) | relative viability ([3]; first compound 0.1 µM) | relative viability ([3]; first compound 0.3162 µM) | relative viability ([3]; first compound 1 µM) | relative viability ([4]; first compound 0.01 µM) | relative viability ([4]; first compound 0.03162 µM) | relative viability ([4]; first compound 0.1 µM) | relative viability ([4]; first compound 0.3162 µM) | relative viability ([4]; first compound 1 µM)
BEN | 0.749 | 0.673 | 0.832 | 0.735 | 0.677 | 1.12 | 1.25 | 1.05 | 1.17 | 0.908 | 0.459 | 0.477 | 0.509 | 0.468 | 0.441 | 0.955 | 0.911 | 0.961 | 1.07 | 0.821
SK-LU-1 | 1.18 | 0.744 | 1.01 | 0.756 | 0.692 | 0.559 | 0.419 | 0.393 | 0.274 | 0.257 | 0.399 | 0.342 | 0.33 | 0.318 | 0.251 | 0.45 | 0.753 | 0.73 | 0.477 | 0.397
NCI-H1975 | 1.18 | 0.888 | 0.964 | 0.889 | 0.927 | 0.422 | 0.286 | 0.22 | 0.173 | 0.191 | 0.609 | 0.396 | 0.263 | 0.184 | 0.182 | 0.894 | 0.77 | 0.679 | 0.456 | 0.451
RERF-LC-KJ | 1 | 0.828 | 0.764 | 0.801 | 0.897 | 0.877 | 0.764 | 0.867 | 0.638 | 0.546 | 1.06 | 1.23 | 1.05 | 0.885 | 0.832 | 0.867 | 0.818 | 0.93 | 0.852 | 0.632
HCC-78 | 1.01 | 0.7 | 0.924 | 0.763 | 1.02 | 0.79 | 0.913 | 0.728 | 0.705 | 0.537 | 0.513 | 0.476 | 0.458 | 0.394 | 0.463 | 0.337 | 0.288 | 0.381 | 0.301 | 0.359
NCI-H1915 | 1.06 | 0.968 | 0.934 | 0.941 | 1.02 | 0.327 | 0.275 | 0.23 | 0.151 | 0.1 | 0.525 | 0.435 | 0.438 | 0.236 | 0.147 | 0.875 | 0.81 | 0.727 | 0.496 | 0.234
